pEC50, pIC50: −log10 of the molar value.
Columns and labels:
[1] = ALS patients; cited from earlier work
primary astrocytes [2] = assay: Extracellular lactate quantification; format: cell-based, mouse; conditions: for Score_LACTATE: Appendix I, secondary screening: extracellular lactate
Method in brief: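 Astrocytes were stimulated 90 min at 37 °C in D5030 medium with 5 mM glucose and 44 mM bicarbonate, with compound at 0-100 μM. Extracellular lactate was measured enzymatically with LDH/NAD in glycine-semicarbazide buffer, pH 10, for 1 h at 37 °C. NADH fluorescence (340/450 nm) was converted to lactate using an L-lactate standard curve.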

primary astrocytes [3] = assay: Intracellular glycogen quantification, Example 2; format: cell-based, mouse; conditions: 10 μM, 3 h
Experimental: Astrocytes grown on 12-well plates were used for intracellular glycogen quantifications. Cells were stimulated with Vehicle (DMSO), with compounds of the invention (10 μM), or with a positive control for 180 min, at 37° C. 5% CO2/95% air in D5030 medium complemented with
5 mM D-glucose and 44 mM sodium bicarbonate (pH 7.2). […] At the end of the stimulation, medium was removed and replaced with 600 μl of 30 mM Tris HCl, and stored at −20° C.
First, the amount of proteins in each sample was quantified to assess whether harvested astrocytes from primary cell cultures yielded enough and equivalent amounts of proteins on each replicates. Proteins were quantified using the micro BCA Protein Assay kit (Thermo Scientific), according to manufacturer's instructions. Next, intracellular glycogen concentrations were quantified using a 250 μl-aliquot of the same stimulated, thawed, and sonicated cell lysate. After an incubation period of 30 min at 90° C. and 400 rpm, 28 μl of a 0.1M acetic acid/sodium acetate buffer (pH 4.6) was added to each lysate aliquots, which were then separated in two. Each split aliquots received either 5 μl of amyloglucosidase or H2O, and incubated for 120 min at 37° C. After centrifugation at 16'000G for 5 min, 20 μl of supernatant were placed in a 96-well plate, to which 150 μl of a mix containing 0.67 mM ATP, 0.67 mM NADP, 1.8% hexokinase/glucose-6-phosphate dehydrogenase in a 0.1M Tris Buffer-HCl/3.3 mM magnesium (pH 8.1) buffer was added. Fluorescence intensity (340 nm excitation/440 nm emission) was measured using a Safire 2 spectrophotometer. Glucose concentrations were assessed relative to a glucose standard curve, and glycogen concentrations were calculated by subtracting glucose values of samples that had received amyloglucosidase (i.e. that had degraded their glycogen stores) to samples that had not. Intracellular levels of glycogen, which is the main source of glucose storage in the brain, were analyzed in primary astrocytes after treatment with compounds of interest (10 μM, 3 h) (FIG. 5B), and compound GP-0157 (0.1, 1, 10 μM, 3 h) (FIG. 20).

primary astrocytes [4] = assay: High throughput screening (HTS) for lactate secretion: acidification of extracellular medium (SNARF5); format: cell-based, mouse; design: key to Score / HTS Score (SNARF5) / Score_SNARF: fraction of plate positive-control activity (1 = 100%); conditions: for Score_SNARF: Appendix I, primary screening confirmation (SNARF5)
Experimental: Primary cultures of cerebrocortical astrocytes were obtained from 1-2-day-old OF1 mouse pups (Charles River Laboratories). Briefly, cortices were isolated and minced in small pieces under a dissecting microscope. The cells were incubated for 30 min at 37° C. in a solution containing 20 U/ml of papain enzyme (Worthington Biochemical), L-cysteine 1 mM (Sigma), and 10 kU/ml DNase I (Worthington Biochemical) for an enzymatic dissociation. Papain activity was stopped by the addition of fetal calf serum (FCS) to the solution, and a single-cell suspension was then obtained by mechanical dissociation, which consisted in cells trituration in a DMEM (D7777, Sigma-Aldrich) medium (supplemented with 44 mm NaHCO3, and 10 ml/L antibiotic/antimycotic solution) containing 10% FCS. The cells were seeded at an average density of 6×10^4 cells/cm^2 in poly-D-lysine-coated 96, 12 or 6-well culture plates, depending on their use, and incubated at 37° C. in a humidified atmosphere containing 5% CO2/95% air. Culture medium was renewed twice per week. Cells were stimulated and harvested between DIV14 and DIV17, when confluence and cell growth were optimal.
Secretion of lactate in a high-throughput screening (HTS) fashion was measured indirectly through the acidification of extracellular medium. To this end, primary astrocytes grown in 96-well plates for 17 days were stimulated with the compounds as listed herein.
After washing the cells twice with stimulation medium (DMEM (D5030, Sigma), 3 mM NaHCO3 and 5 mM Glucose) at 37° C., cells were stimulated with the compounds at a final concentration of 10 uM (1% DMSO final) in 50 ul per well of stimulation medium supplemented with 10 uM of the extracellular pH sensor SNARF-5F %-(AND-6)-CAR (Life Technologies Corporation). Each compound was tested in two different plates for duplicates.
After 90 min stimulation, fluorescence was read at exc. (excitation) 480 nm/emm. (emission) 580 nm and at exc 480 nm/emm. 630 nm. The ratio of fluorescence between 630 nm and 580 emission values, which represents extracellular pH, was calculated.
In each plate, 8 wells were used for negative controls (DMSO) and 8 wells were used for positive controls (CCCP 2 uM in DMSO). Z prime values were calculated for each of the plates tested and values<0 were discarded.
The average and SD of compounds' values tested in duplicates were calculated, and compound was noted as HIT when the difference between compound's average and negative control's average was greater than three times the sum of compound's SD and negative controls' SD. Only scores greater than 40% were considered as lead Hits for the CDC54K library; for the remaining libraries, all hits were considered. Scores are calculated as the % of activity compared to the positive control in each plate (which is 100%).
Primary screening hits were cherry picked on new plates and confirmed for SNARF5 effect, after having discarded those compounds that are fluorescent (exc. 480 nm/emm. 580 nm or 630 nm) before stimulation. Extracellular medium was next analyzed for extracellular lactate quantification for secondary screening.
Identification of lactate-enhancing drugs with high throughput screening (HTS) experiments on astrocytes primary cultures using extracellular pH dye (SNARF5F 5-(and-6)-carboxylic acid) for 90 min. The procedure is described in Material and Methods (2. Cell culture, 2.1. HTS for lactate secretion and 2.2. Extracellular lactate quantification).
The procedure was performed as follows: • Primary screening: acidification of the extracellular medium • Primary screening confirmation: acidification of the extracellular medium, removal of compounds with fluorescent activity at exc. 480 nm/emm. 580 nm or 630 n. • Secondary screening: dosage of extracellular lactate

primary astrocytes [5] = assay: Intracellular glycogen quantification; format: cell-based, mouse; conditions: CDC54K hits, 10 μM, 3 h
Experimental: For glycogen dosage, a protein dosage was first performed in order to assess whether harvested astrocytes from primary cell cultures yielded enough and equivalent amounts of proteins comparing each replicate, and to ensure that the obtained differences in glycogen quantities were due to drug action and not to inner protein quantities.
Astrocytes used for these dosages were previously grown in 6-well plates for 17 days and stimulated with Vehicle (DMSO) or drug of interest (1 μM to 100 μM) for 180 min, at 37° C. 5% CO2/95% air in D5030 complete medium. Medium was removed and replaced with 600 μl of 30 mM Tris HCl, and stored at −20° C.
Proteins were dosed using the micro BCA Protein Assay kit (Thermo Scientific), as described in the manufacturer's instructions. Briefly, thawed cells were sonicated and 5 μl aliquots were placed in a transparent 96-well plate, to which we added 25 μl 30 mM Tris HCl, 70 μl H2O and 100 μl of a BCA mix (made as described in manufacturer's guidelines). After a 120 min-incubation at 37° C., absorbance was measured with Safire 2 spectrophotometer at a wavelength of 562 nm, and protein quantities were determined from a standard curve of Bovine Serum Albumin (BSA).
Glycogen was quantified using a 250 μl-aliquot of the same stimulated, thawed, and sonicated cells. After an incubation period of 30 min at 90° C. and 400 rpm, 28 μl of an acetic acid/sodium acetate (both from Sigma) 0.1M pH 4.6 buffer was added to each aliquot, which was then separated in two. Each split aliquot received whether 5 μl of amyloglucosidase (Roche) or 5 μl H2O, and all cell solutions were incubated for 120 min in a shaking 37° C.-waterbath. After a centrifugation at 16'000G for 5 min, 20 μl of supernatant were placed 96-well plate, to which 150 μl of a mix containing 0.67 mM ATP (Roche), 0.67 mM NADP (Roche), 1.8% hexokinase/glucose-6-phosphate dehydrogenase (Roche) and 0.1M Tris Buffer-HCl/3.3 mM magnesium (Fluka)/pH 8.1 buffer was added. Fluorescence was measured with Safire 2 spectrophotometer (340 nm excitation/440 nm emission). Glycogen concentration was obtained by substracting glucose value of samples with amyloglucosidase to samples without amyloglucosidase, and were expressed relative to the amount of proteins previously determined.
Levels of intracellular glycogen in astrocytes were measured at 3 h after stimulation with 20 Hits from the Prestwick library (10 μM each), as shown in FIG. 2. n=6-10; Ctrl pos. is glutamate (0.5 mM). Statistical analysis consisted in ANOVA followed by Fisher LSD post-hoc test for pair-wise comparisons.
Statistical analysis consisted in ANOVA followed by Fisher LSD post-hoc test for pair-wise comparisons.

primary astrocytes [6] = assay: MTT viability assay; format: cell-based; conditions: Mus musculus, Astrocyte, 0-200 uM, 24 h
Experimental: For cell toxicity determination, astrocytes in 96-well plates were stimulated 24 h (37° C. 5% CO2/95% air) with a gradient ranging from 0.1 to 200 μM of tested compounds. After stimulation, 5 mg/ml thiazol blue tetrazolium bromide (MTT, Sigma-Aldrich) in warm D5030 complete medium was added to each well, and cells were incubated for 4 h at 37° C. (5% CO2). The medium was then removed by aspiration, and the reaction was stopped by the addition of 50 μl DMSO per well.
The amount of reduced MTT (formazan) solubilized in DMSO was then determined spectrophotometrically using absorbance at 570 nm (Safire 2; Tecan).
MTT cellular viability assay was performed on astrocytes exposed to Preswtick Hits (concentrations ranging from 0 uM to 200 uM).
MTT cellular viability assay was performed on astrocytes exposed to CDC54K Hits (concentrations ranging from 0 uM to 200 uM).

## CC1=NN(c2ccccc2)C(=O)C1 [Ederavone, edaravone]
[1]
  prolongation of patients' lifetime: a few months only

## COc1ccccc1[N+]1=C2CCCCCN2C(O)(c2ccc(C)cc2)C1 (stereo not shown) [K404-0834]
Primary astrocytes [2]
  Score_LACTATE: 1.613
Primary astrocytes [3]
  mobilization of intracellular glycogen: significantly enhance
Primary astrocytes [4]
  Score_SNARF: 1.022

## COc1ccccc1NC(=O)Cc1nn(C)c(=O)c2ccccc12 [K851-0113]
Primary astrocytes [5]
  Glycogen (statistical significance of glycogen degradation): ns
Primary astrocytes [2]
  Score_LACTATE: 0.9281
Primary astrocytes [4]
  Score_SNARF: 0.7569
Primary astrocytes [6]; CDC54K hits
  pIC50: < 3.70

## Nc1nc2ccc(OC(F)(F)F)cc2s1 [Riluzole]
[1]
  prolongation of patients' lifetime: a few months only

## Fc1ccc(-c2cc3n(n2)CCCN(Cc2ccncc2)C3)cc1 [T202-1455]
Primary astrocytes [5]
  Glycogen (statistical significance of glycogen degradation): ns
Primary astrocytes [2]
  Score_LACTATE: 0.6933
Primary astrocytes [4]
  Score_SNARF: 0.7839
Primary astrocytes [6]; CDC54K hits
  pIC50: < 3.70

## COc1ccc(Nc2nc(N3CCOCC3)c3ccccc3n2)cc1 [T0508-5190]
Primary astrocytes [2]
  Score_LACTATE: 0.2892
Primary astrocytes [3]
  mobilization of intracellular glycogen: significantly enhance
Primary astrocytes [4]
  Score_SNARF: 0.4029

## CC(=O)c1cccc(NC(=O)C(C)Sc2ncnc3ccccc23)c1 (stereo not shown) [T0511-9200]
Primary astrocytes [5]
  Glycogen (statistical significance of glycogen degradation): ns
Primary astrocytes [2]
  Score_LACTATE: 0.7518
Primary astrocytes [4]
  Score_SNARF: 0.4866
Primary astrocytes [6]; CDC54K hits
  pIC50: < 3.70

## O=S(=O)(Nc1cc(F)cc(F)c1)c1ccc2ccccc2c1 [T5884038]
Primary astrocytes [2]
  Score_LACTATE: 0.9262
Primary astrocytes [3]
  mobilization of intracellular glycogen: significantly enhance
Primary astrocytes [4]
  Score_SNARF: 0.8379

## COc1cccc(CNS(=O)(=O)c2ccc3c(c2)CCCN3C(C)=O)c1 [T5967389]
Primary astrocytes [2]
  Score_LACTATE: 0.4517
Primary astrocytes [2]; Appendix II, CDC54K library
  Score Lact.: 0.45
Primary astrocytes [4]
  Score_SNARF: 0.2789
Primary astrocytes [6]; CDC54K hits
  pIC50: < 3.70

## C#C[C@]1(O)CC[C@H]2[C@@H]3[C@H](C)CC4=C(CCC(=O)C4)[C@H]3CC[C@@]21C [Tibolone]
Primary astrocytes [2]; Mus musculus, Astrocyte, 1.5 h, Prestwick hits, 0-100 μM, 90 min, read-out: Lactate EC50
  pEC50: 5.65
Primary astrocytes [4]; Prestwick library, 10 uM, 90 min, activity relative to positive control CCCP 2 uM
  Score: 0.2268
Primary astrocytes [4]; Prestwick library, 10 uM, 90 min, relative to positive control CCCP 2 uM
  HTS Score (lactate): 0.227
Primary astrocytes [6]; Prestwick hits
  pIC50: 4.22

— US12310967B2, “Compositions and methods of treatment for neurological disorders comprising motor neuron diseases” (Gliapharm SA, priority 2017, dated 2025)
